{
  "source": "the NIST ThermoML archive (doi:10.1016/j.fluid.2011.01.021)",
  "key": {"[1]": {"conditions": "298.15 K; 101.33 kPa; Liquid; Vibrating tube method"}, "[2]": {"experiment": "refractive index (Na D-line) (dimensionless)", "conditions": "298.15 K; 101.33 kPa; Liquid; Standard Abbe refractometry"}},
  "note": "± gives the expanded uncertainty stated by the source.",
  "data": [
    {"smiles": "CCOS(=O)(=O)[O-].CCn1cc[n+](C)c1", "note": "[1-ethyl-3-methylimidazolium ethyl sulfate]", "values": [
      {"measurement": "mass density", "setting": "[1]", "result": "1237.23 ± 0.43", "unit": "kg/m3"},
      {"measurement": "refractive index", "setting": "[2]", "result": "1.4791 ± 0.0007"}
    ]}
  ]
}
